In the supplement of paper PMC10307832:

How the values were obtained:
Assay in all cases: relative viability (nuclei count vs DMSO), 5 days (fraction); higher = more cells survive
[1] = compound: C1=CC2=C(C=CC(=C2)C=C3C(=O)NC(=NCC4=CC=CS4)S3)N=C1 [RO-3306] + O=C(CCCCCCC(=O)Nc1ccccc1)NO [Vorinostat] (partner 1 µM)
How it was run: (§1)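 Lung cancer cell lines were seeded in 1536-well plates and dosed by pin tool the next day, with either a single drug or a fixed anchor-drug dose combined with five library-drug doses (not always all listed) spaced in √10 steps. Five days later, one step fixed the cells and stained their nuclei (final 0.05% Triton X-100, 1% formaldehyde, 1 ug/ml Hoechst), and nuclei were counted on 4× images. Relative viability is the nuclei count in treated wells divided by the count in vehicle wells, and each value is the median of duplicate plates.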

[2] = compound: C1=CC2=C(C=CC(=C2)C=C3C(=O)NC(=NCC4=CC=CS4)S3)N=C1 [RO-3306] + CC1(C)CCC(c2ccc(Cl)cc2)=C(CN2CCN(c3ccc(C(=O)NS(=O)(=O)c4ccc(N[C@H](CCN5CCOCC5)CSc5ccccc5)c(S(=O)(=O)C(F)(F)F)c4)cc3)CC2)C1 [Navitoclax] (partner 0.5 µM)
How it was run: as §1

[3] = compound: C1=CC2=C(C=CC(=C2)C=C3C(=O)NC(=NCC4=CC=CS4)S3)N=C1 [RO-3306] + Nc1nc2[nH]cc(CCc3ccc(C(=O)N[C@@H](CCC(=O)O)C(=O)O)cc3)c2c(=O)[nH]1 [Pemetrexed] (partner 0.2 µM)
How it was run: as §1

[4] = compound: O=S(=O)(c1ccccc1)N(CC(F)(F)F)c1ccc(C(O)(C(F)(F)F)C(F)(F)F)cc1 + Cc1nc(Nc2ncc(C(=O)Nc3c(C)cccc3Cl)s2)cc(N2CCN(CCO)CC2)n1 [Dasatinib] (partner 0.075 µM)
How it was run: as §1

For RERF-LC-KJ, the relative viability ([1]; first compound 0.01 µM) was 0.725, the relative viability ([1]; first compound 0.03162 µM) was 0.64 and the relative viability ([1]; first compound 0.1 µM) was 0.67. For the same cell line, the relative viability ([1]; first compound 0.3162 µM) was 0.687, the relative viability ([1]; first compound 1 µM) was 0.63 and the relative viability ([2]; first compound 0.01 µM) was 1.36. The relative viability ([2]; first compound 0.03162 µM) was 1.03, the relative viability ([2]; first compound 0.1 µM) was 0.815 and the relative viability ([2]; first compound 0.3162 µM) was 0.684. For the same cell line, the relative viability ([2]; first compound 1 µM) was 0.997, the relative viability ([3]; first compound 0.01 µM) was 0.515 and the relative viability ([3]; first compound 0.03162 µM) was 0.48. It also gave a relative viability ([3]; first compound 0.1 µM) of 0.493, a relative viability ([3]; first compound 0.3162 µM) of 0.459 and a relative viability ([3]; first compound 1 µM) of 0.449. It also gave a relative viability ([4]; first compound 0.8 µM) of 0.753, a relative viability ([4]; first compound 2.53 µM) of 0.652 and a relative viability ([4]; first compound 8 µM) of 0.641.

With HARA the relative viability ([1]; first compound 0.01 µM) was 0.493, the relative viability ([1]; first compound 0.03162 µM) was 0.404 and the relative viability ([1]; first compound 0.1 µM) was 0.527. It also gave a relative viability ([1]; first compound 0.3162 µM) of 0.638, a relative viability ([1]; first compound 1 µM) of 0.445 and a relative viability ([2]; first compound 0.01 µM) of 1.16. The relative viability ([2]; first compound 0.03162 µM) was 1.11, the relative viability ([2]; first compound 0.1 µM) was 1.17 and the relative viability ([2]; first compound 0.3162 µM) was 1.12. It also gave a relative viability ([2]; first compound 1 µM) of 1.37, a relative viability ([3]; first compound 0.01 µM) of 0.242 and a relative viability ([3]; first compound 0.1 µM) of 0.227. It also gave a relative viability ([3]; first compound 0.3162 µM) of 0.24, a relative viability ([3]; first compound 1 µM) of 0.288 and a relative viability ([4]; first compound 0.8 µM) of 0.294. It also gave a relative viability ([4]; first compound 2.53 µM) of 0.287 and a relative viability ([4]; first compound 8 µM) of 0.242.

Cell Line NCI-H838 has a relative viability ([1]; first compound 0.01 µM) of 0.726, a relative viability ([1]; first compound 0.03162 µM) of 0.694 and a relative viability ([1]; first compound 0.1 µM) of 0.722. For the same cell line, the relative viability ([1]; first compound 0.3162 µM) was 0.738, the relative viability ([1]; first compound 1 µM) was 0.674 and the relative viability ([2]; first compound 0.01 µM) was 1.26. It also gave a relative viability ([2]; first compound 0.03162 µM) of 1.14, a relative viability ([2]; first compound 0.1 µM) of 1.17 and a relative viability ([2]; first compound 0.3162 µM) of 1.19. For the same cell line, the relative viability ([2]; first compound 1 µM) was 1.21, the relative viability ([3]; first compound 0.01 µM) was 0.256 and the relative viability ([3]; first compound 0.03162 µM) was 0.252. It also gave a relative viability ([3]; first compound 0.1 µM) of 0.252, a relative viability ([3]; first compound 0.3162 µM) of 0.251 and a relative viability ([3]; first compound 1 µM) of 0.282. For the same cell line, the relative viability ([4]; first compound 0.8 µM) was 0.273, the relative viability ([4]; first compound 2.53 µM) was 0.303 and the relative viability ([4]; first compound 8 µM) was 0.325.

Cell Line BEN has a relative viability ([1]; first compound 0.01 µM) of 0.565, a relative viability ([1]; first compound 0.03162 µM) of 0.543 and a relative viability ([1]; first compound 0.1 µM) of 0.562. The relative viability ([1]; first compound 0.3162 µM) was 0.595, the relative viability ([1]; first compound 1 µM) was 0.55 and the relative viability ([2]; first compound 0.01 µM) was 0.057. It also gave a relative viability ([2]; first compound 0.03162 µM) of 0.0628, a relative viability ([2]; first compound 0.1 µM) of 0.0739 and a relative viability ([2]; first compound 0.3162 µM) of 0.0677. It also gave a relative viability ([2]; first compound 1 µM) of 0.0527, a relative viability ([3]; first compound 0.01 µM) of 0.634 and a relative viability ([3]; first compound 0.03162 µM) of 0.735. The relative viability ([3]; first compound 0.1 µM) was 0.728, the relative viability ([3]; first compound 0.3162 µM) was 0.769 and the relative viability ([3]; first compound 1 µM) was 0.803. It also gave a relative viability ([4]; first compound 0.8 µM) of 0.252, a relative viability ([4]; first compound 2.53 µM) of 0.275 and a relative viability ([4]; first compound 8 µM) of 0.333.

NCI-H1437 gave a relative viability ([1]; first compound 0.01 µM) of 0.848, a relative viability ([1]; first compound 0.03162 µM) of 0.782 and a relative viability ([1]; first compound 0.1 µM) of 0.807. The relative viability ([1]; first compound 0.3162 µM) was 0.751, the relative viability ([1]; first compound 1 µM) was 0.688 and the relative viability ([2]; first compound 0.01 µM) was 1.16. The relative viability ([2]; first compound 0.03162 µM) was 0.996, the relative viability ([2]; first compound 0.1 µM) was 1.05 and the relative viability ([2]; first compound 0.3162 µM) was 1.13. The relative viability ([2]; first compound 1 µM) was 1.1, the relative viability ([3]; first compound 0.01 µM) was 0.343 and the relative viability ([3]; first compound 0.03162 µM) was 0.311. It also gave a relative viability ([3]; first compound 0.1 µM) of 0.374, a relative viability ([3]; first compound 0.3162 µM) of 0.344 and a relative viability ([3]; first compound 1 µM) of 0.37. It also gave a relative viability ([4]; first compound 0.8 µM) of 0.327, a relative viability ([4]; first compound 2.53 µM) of 0.297 and a relative viability ([4]; first compound 8 µM) of 0.287.

For SK-LU-1, the relative viability ([1]; first compound 0.01 µM) was 0.854, the relative viability ([1]; first compound 0.03162 µM) was 0.711 and the relative viability ([1]; first compound 0.1 µM) was 0.786. The relative viability ([1]; first compound 0.3162 µM) was 0.786, the relative viability ([1]; first compound 1 µM) was 0.605 and the relative viability ([2]; first compound 0.01 µM) was 1.08. It also gave a relative viability ([2]; first compound 0.03162 µM) of 0.837, a relative viability ([2]; first compound 0.1 µM) of 0.774 and a relative viability ([2]; first compound 0.3162 µM) of 0.926. For the same cell line, the relative viability ([2]; first compound 1 µM) was 0.832, the relative viability ([3]; first compound 0.01 µM) was 1.03 and the relative viability ([3]; first compound 0.03162 µM) was 0.918. The relative viability ([3]; first compound 0.1 µM) was 0.963, the relative viability ([3]; first compound 0.3162 µM) was 0.949 and the relative viability ([3]; first compound 1 µM) was 0.897. The relative viability ([4]; first compound 0.8 µM) was 0.161, the relative viability ([4]; first compound 2.53 µM) was 0.166 and the relative viability ([4]; first compound 8 µM) was 0.177.

NCI-H1915 gave a relative viability ([1]; first compound 0.01 µM) of 0.577, a relative viability ([1]; first compound 0.03162 µM) of 0.564 and a relative viability ([1]; first compound 0.1 µM) of 0.505. The relative viability ([1]; first compound 0.3162 µM) was 0.49, the relative viability ([1]; first compound 1 µM) was 0.505 and the relative viability ([2]; first compound 0.01 µM) was 0.808. The relative viability ([2]; first compound 0.03162 µM) was 0.797, the relative viability ([2]; first compound 0.1 µM) was 0.792 and the relative viability ([2]; first compound 0.3162 µM) was 0.781. For the same cell line, the relative viability ([2]; first compound 1 µM) was 0.718, the relative viability ([3]; first compound 0.01 µM) was 0.609 and the relative viability ([3]; first compound 0.03162 µM) was 0.495. The relative viability ([3]; first compound 0.1 µM) was 0.52, the relative viability ([3]; first compound 0.3162 µM) was 0.49 and the relative viability ([3]; first compound 1 µM) was 0.572. It also gave a relative viability ([4]; first compound 0.8 µM) of 0.284, a relative viability ([4]; first compound 2.53 µM) of 0.276 and a relative viability ([4]; first compound 8 µM) of 0.291.

LU99A gave a relative viability ([1]; first compound 0.01 µM) of 0.648, a relative viability ([1]; first compound 0.03162 µM) of 0.626 and a relative viability ([1]; first compound 0.1 µM) of 0.461. For the same cell line, the relative viability ([1]; first compound 0.3162 µM) was 0.432, the relative viability ([1]; first compound 1 µM) was 0.388 and the relative viability ([2]; first compound 0.01 µM) was 0.916. The relative viability ([2]; first compound 0.03162 µM) was 0.708, the relative viability ([2]; first compound 0.1 µM) was 0.866 and the relative viability ([2]; first compound 0.3162 µM) was 0.747. It also gave a relative viability ([2]; first compound 1 µM) of 0.803, a relative viability ([3]; first compound 0.01 µM) of 0.285 and a relative viability ([3]; first compound 0.03162 µM) of 0.267. It also gave a relative viability ([3]; first compound 0.1 µM) of 0.174, a relative viability ([3]; first compound 0.3162 µM) of 0.176 and a relative viability ([3]; first compound 1 µM) of 0.188. The relative viability ([4]; first compound 0.8 µM) was 0.652, the relative viability ([4]; first compound 2.53 µM) was 0.603 and the relative viability ([4]; first compound 8 µM) was 0.629.

NCI-H1975 showed a relative viability ([1]; first compound 0.01 µM) of 0.608, a relative viability ([1]; first compound 0.03162 µM) of 0.624 and a relative viability ([1]; first compound 0.1 µM) of 0.685. It also gave a relative viability ([1]; first compound 0.3162 µM) of 0.701, a relative viability ([1]; first compound 1 µM) of 0.69 and a relative viability ([2]; first compound 0.01 µM) of 1.49. It also gave a relative viability ([2]; first compound 0.03162 µM) of 0.986, a relative viability ([2]; first compound 0.1 µM) of 1.22 and a relative viability ([2]; first compound 0.3162 µM) of 1.12. For the same cell line, the relative viability ([2]; first compound 1 µM) was 1.01, the relative viability ([3]; first compound 0.01 µM) was 0.28 and the relative viability ([3]; first compound 0.03162 µM) was 0.269. For the same cell line, the relative viability ([3]; first compound 0.1 µM) was 0.303, the relative viability ([3]; first compound 0.3162 µM) was 0.321 and the relative viability ([3]; first compound 1 µM) was 0.302. The relative viability ([4]; first compound 0.8 µM) was 0.353, the relative viability ([4]; first compound 2.53 µM) was 0.339 and the relative viability ([4]; first compound 8 µM) was 0.298.
